# Read-outs that look alike come from different tables or passages of the source.
# Columns and labels:
# [1] = tested on: HSV-2; experiment: Extracellular activity, inhibition of plaque forming units, HSV-2; conditions: for inhibition at 0.4 µM: Human alphaherpesvirus 2, read-out: % Inhibition of PFU, EA (extracellular activity), HSV-2, 0.4 μmol/L; for inhibition at 1.6 µM: Human alphaherpesvirus 2, read-out: % Inhibition of PFU, EA (extracellular activity), HSV-2, 1.6 μmol/L; for inhibition at 2.5 µM: Human alphaherpesvirus 2, read-out: % Inhibition of PFU, EA (extracellular activity), HSV-2, 2.5 μmol/L; for inhibition at 10 µM: Human alphaherpesvirus 2, read-out: % Inhibition of PFU, EA (extracellular activity), HSV-2, 10.0 μmol/L
# [2] = Inhibition of cell growth (microscopic cell count); assay type: cell-based, Buffalo green monkey; conditions: monkey, bgm-70 cells, read-out: % Reduction of cell growth; for inhibition at 24 h, 0.4 µM / inhibition at 48 h, 0.4 µM: 0.4 μmol/L; for inhibition at 24 h, 1.6 µM / inhibition at 48 h, 1.6 µM: 1.6 μmol/L; for inhibition at 24 h, 2.5 µM / inhibition at 48 h, 2.5 µM: 2.5 μmol/L; for inhibition at 24 h, 10 µM / inhibition at 48 h, 10 µM: 10.0 μmol/L; for inhibition at 24 h, 50 µM / inhibition at 48 h, 50 µM: 50.0 μmol/L; for inhibition at 24 h, 100 µM / inhibition at 48 h, 100 µM: 100.0 μmol/L
# Description: a MASHII cell harvester and placed in a scintillation counter to determin
# incorporation of labelled compound and level of toxicity. BGM 70 cells ar
# seeded at a concentration of […] per well in a 24well tissue cultur
# plate. Cells are planted in 2 mL of growth medium with or without the tes
# compound and are incubated at 37° C. for 38 hours. At 24 hours
# medium is removed from onehalf of the plates and the cells are fixed and
# stained with crystal violet. The remaining cultures are fixed and stained
# ^b BGM 70 cells are counted microscopically and comparisons are made.
# Experiments are performed blindly by assigning each compound concentratio
# a letter code. The code is broken after the cells are counted.
# The effect of the compounds on the inhibition of cell growth is determined using BGM-70 cells grown in vitro. For this assay, BGM 70 cells are seeded at a concentration of approximately 70 cells per well in 24-well tissue culture plates. Cells are planted in 2 ml of growth medium with or without the test compound and are incubated at 37° C. for 48 hours. At 24 hours, cells from one half of the plates are fixed and stained with crystal violet. The remaining cultures are fixed and stained at 48 hours. Cells are counted microscopically and comparisons are made between non-treated (control) and treated cells.
# [3] = tested on: HSV-2; experiment: Intracellular activity, inhibition of plaque forming units, HSV-2; assay type: cell-based, Herpes simplex virus type 2; conditions: for inhibition at 0.4 µM: Human alphaherpesvirus 2, HSV-2, 0.4 μmol/L; for inhibition at 1.6 µM: Human alphaherpesvirus 2, HSV-2, 1.6 μmol/L; for inhibition at 10 µM: Human alphaherpesvirus 2, HSV-2, 10.0 μmol/L
# [4] = tested on: Buffalo green monkey kidney (BGM 70) cells; experiment: [3H]-thymidine uptake cytotoxicity; assay type: cell-based; conditions: for inhibition at 0.4 µM / inhibition at 1.6 µM / inhibition at 2.5 µM / inhibition at 10 µM: Chlorocebus sabaeus, read-out: % Inhibition of [3H]-Thymidine Incorporated; for inhibition at 0.4 µM: 0.4 μmol/L; for inhibition at 1.6 µM: 1.6 μmol/L; for inhibition at 2.5 µM: 2.5 μmol/L; for inhibition at 10 µM: 10.0 μmol/L
# [5] = tested on: enveloped viruses; conditions: cited from earlier work
# [6] = tested on: viruses having no lipids; conditions: cited from earlier work
# [7] = tested on: HSV; conditions: cited from earlier work; for extracellular inactivation of HSV: 0.5 mM
# [8] = tested on: HBV surface antigen; conditions: Pottage et al., cited from earlier work
# [9] = tested on: cellular protein synthesis; conditions: Pottage et al., cited from earlier work
# [10] = tested on: herpes simplex virus type 1 (HSV-1); conditions: cited from earlier work
# [11] = tested on: enveloped virus .phi. 6; conditions: cited from earlier work
# [12] = tested on: human immunodeficiency virus (HIV); conditions: cited from earlier work
# [13] = read-out: % Inhibition of PFU, IA (intracellular activity)
# [14] = at concentrations of 10 μM or less
compound,measurement,setting,value
CC1(c2ccc(Cl)cc2)OC(=O)C(O)=C1O (racemic) [Compound 1],inhibition at 0.4 µM,[1],0%
same,inhibition at 1.6 µM,[1],1.5 ± 0.1%
same,"inhibition at 24 h, 0.4 µM",[2],12 ± 4%
same,"inhibition at 24 h, 1.6 µM",[2],54 ± 8.6%
same,"inhibition at 24 h, 2.5 µM",[2],60 ± 9.1%
same,"inhibition at 48 h, 0.4 µM",[2],16 ± 3.6%
same,"inhibition at 48 h, 1.6 µM",[2],67 ± 12.1%
same,"inhibition at 48 h, 2.5 µM",[2],90 ± 4.6%
same,inhibition at 0.4 µM,[3]; [13],0%
same,inhibition at 1.6 µM,[3]; [13],8 ± 2.4%
same,inhibition at 0.4 µM,[4]; 24 h,0%
same,inhibition at 1.6 µM,[4]; 24 h,16.7 ± 12.7%
same,inhibition at 2.5 µM,[4]; 24 h,66.7 ± 5.8%
same,inhibition at 10 µM,[4]; 24 h,95 ± 0.4%
same,inhibition at 0.4 µM,[4]; 48 h,0%
same,inhibition at 1.6 µM,[4]; 48 h,14.5 ± 15.5%
same,inhibition at 2.5 µM,[4]; 48 h,74.3 ± 9.3%
same,inhibition at 10 µM,[4]; 48 h,98.6 ± 0.5%
same,inhibition at 0.4 µM,[4]; 72 h,0%
same,inhibition at 1.6 µM,[4]; 72 h,39.9 ± 15.7%
same,inhibition at 2.5 µM,[4]; 72 h,53.9 ± 16.3%
same,inhibition at 10 µM,[4]; 72 h,98.2 ± 0.8%
same,toxicity ([3H]-thymidine uptake and/or cell growth),[4]; [14],display toxicity
"Cc1cc(C(C)(C)C)c(O)c(C(C)(C)C)c1 [BHT, butylated hydroxytoluene]",inactivation of viruses that contain lipids,[5],readily inactivated
same,inactivation of viruses having no lipids,[6],comparatively insensitive
same,IC50,"[7]; Snipes et al., read-out: concentration causing 50% inactivation of HSV",70 to 160 µM
"O=C1OC2(CCCCC2)C(O)=C1O [Compound 4, 4-spiro-2-hydroxytetronic acid]",inhibition at 0.4 µM,[1],2 ± 1%
same,inhibition at 1.6 µM,[1],1.8 ± 0.2%
same,"inhibition at 24 h, 0.4 µM",[2],6 ± 1.1%
same,"inhibition at 24 h, 1.6 µM",[2],21 ± 12%
same,"inhibition at 24 h, 2.5 µM",[2],37 ± 9.4%
same,"inhibition at 24 h, 10 µM",[2],88 ± 6.1%
same,"inhibition at 48 h, 0.4 µM",[2],8.4 ± 3.6%
same,"inhibition at 48 h, 1.6 µM",[2],22 ± 6.1%
same,"inhibition at 48 h, 2.5 µM",[2],59 ± 12.4%
same,"inhibition at 48 h, 10 µM",[2],86 ± 6.1%
same,toxicity ([3H]-thymidine uptake and/or cell growth),[4]; [14],display toxicity
O=c1oc2ccc(Cl)cc2c(O)c1O [Compound 6],inhibition at 0.4 µM,[1],1.5 ± 0.8%
same,inhibition at 1.6 µM,[1],1.2 ± 0.6%
same,inhibition at 2.5 µM,[1],0.4 ± 0.1%
same,"inhibition at 24 h, 0.4 µM",[2],21 ± 1%
same,"inhibition at 24 h, 1.6 µM",[2],20 ± 6.2%
same,"inhibition at 24 h, 2.5 µM",[2],56 ± 12%
same,"inhibition at 48 h, 0.4 µM",[2],12 ± 6.5%
same,"inhibition at 48 h, 1.6 µM",[2],30 ± 13.1%
same,"inhibition at 48 h, 2.5 µM",[2],58 ± 9.4%
same,inhibition at 0.4 µM,[3]; [13],3 ± 1.1%
same,inhibition at 1.6 µM,[3]; [13],10 ± 4.6%
same,inhibition at 0.4 µM,[4]; 24 h,11.1 ± 9.1%
same,inhibition at 1.6 µM,[4]; 24 h,31.1 ± 5.8%
same,inhibition at 2.5 µM,[4]; 24 h,17.8 ± 2%
same,inhibition at 10 µM,[4]; 24 h,90 ± 1.4%
same,inhibition at 0.4 µM,[4]; 48 h,16.7 ± 8.4%
same,inhibition at 1.6 µM,[4]; 48 h,46.8 ± 9%
same,inhibition at 2.5 µM,[4]; 48 h,20 ± 3.3%
same,inhibition at 10 µM,[4]; 48 h,99.2 ± 0.8%
same,inhibition at 0.4 µM,[4]; 72 h,31.8 ± 12%
same,inhibition at 1.6 µM,[4]; 72 h,41.4 ± 14%
same,inhibition at 2.5 µM,[4]; 72 h,17 ± 5%
same,inhibition at 10 µM,[4]; 72 h,99.2 ± 0.8%
same,toxicity ([3H]-thymidine uptake and/or cell growth),[4]; [14],display toxicity
O=c1oc2ccc(O)cc2c(O)c1O [Compound 7],inhibition at 10 µM,[1],86 ± 0.5%
same,"inhibition at 24 h, 0.4 µM",[2],14.2 ± 6.2%
same,"inhibition at 24 h, 2.5 µM",[2],0.4%
same,"inhibition at 24 h, 10 µM",[2],1.6 ± 0.2%
same,"inhibition at 24 h, 50 µM",[2],18.4 ± 6.1%
same,"inhibition at 24 h, 100 µM",[2],52 ± 8%
same,"inhibition at 48 h, 2.5 µM",[2],1 ± 0.4%
same,"inhibition at 48 h, 10 µM",[2],2 ± 1%
same,"inhibition at 48 h, 50 µM",[2],22.1 ± 8.4%
same,"inhibition at 48 h, 100 µM",[2],66 ± 11.1%
same,inhibition at 10 µM,[3]; [13],10 ± 3.2%
same,inhibition at 0.4 µM,[4]; 24 h,13.6 ± 6.1%
same,inhibition at 1.6 µM,[4]; 24 h,28.6 ± 12%
same,inhibition at 2.5 µM,[4]; 24 h,36.9 ± 8.6%
same,inhibition at 10 µM,[4]; 24 h,44.3 ± 9.1%
same,inhibition at 0.4 µM,[4]; 48 h,13.9 ± 6.1%
same,inhibition at 1.6 µM,[4]; 48 h,31.7 ± 8.4%
same,inhibition at 2.5 µM,[4]; 48 h,37.2 ± 5.1%
same,inhibition at 10 µM,[4]; 48 h,46.6 ± 8%
same,inhibition at 0.4 µM,[4]; 72 h,13.9 ± 6.1%
same,inhibition at 1.6 µM,[4]; 72 h,31.6 ± 8.4%
same,inhibition at 2.5 µM,[4]; 72 h,39.3 ± 13.1%
same,inhibition at 10 µM,[4]; 72 h,48.4 ± 14%
same,toxicity ([3H]-thymidine uptake and/or cell growth),[4]; [14],display toxicity
O=c1oc2cc3c(cc2c(O)c1O)OCO3 [Compound 8],inhibition at 2.5 µM,[1],3 ± 1%
same,inhibition at 10 µM,[1],16 ± 8%
same,"inhibition at 24 h, 2.5 µM",[2],2 ± 0.6%
same,"inhibition at 24 h, 10 µM",[2],6.6 ± 1%
same,"inhibition at 24 h, 50 µM",[2],54 ± 2%
same,"inhibition at 24 h, 100 µM",[2],68 ± 7.6%
same,"inhibition at 48 h, 2.5 µM",[2],4.2 ± 3.6%
same,"inhibition at 48 h, 10 µM",[2],8.1 ± 2.1%
same,"inhibition at 48 h, 50 µM",[2],52.2 ± 9.1%
same,"inhibition at 48 h, 100 µM",[2],71 ± 8.1%
same,inhibition at 2.5 µM,"[3]; Human alphaherpesvirus 2, HSV-2, 2.5 μmol/L, read-out: % Inhibition of PFU, IA (intracellular activity)",1 ± 0.2%
same,inhibition at 10 µM,[3]; [13],6.1 ± 1%
same,toxicity ([3H]-thymidine uptake and/or cell growth),[4]; at 10 μM,no toxicity
CC(=O)N1CCN(c2ccc(OCC3COC(Cn4ccnc4)(c4ccc(Cl)cc4Cl)O3)cc2)CC1 (centres unmarked) [Ketoconazole],inhibition in HBV surface antigen production,[8]; 10 μg/mL,72%
same,HBV surface antigen production,[8],non-specifically inhibits HBV surface antigen production
same,reduction in protein synthesis,[9]; 10 μg/mL,38%
same,cellular protein synthesis,[9],decrease in cellular protein synthesis
"CCOC(=O)C(C)(C)Oc1ccc(Cl)cc1 [clofibrate, clofibric acid ethyl ester]",antiherpetic activity,[7]; Steinhart et al.,antiherpetic activity
"CC(C)(Oc1ccc(Cl)cc1)C(=O)O [clofibric acid, reference compound]","inhibition, extracellular treatment of HSV-2","[1]; 500 μM, P>0.05",no significant (P>0.05) inhibition
same,anti-HSV-1 activity (inhibition),"[10]; 500 μM, Mehl",45%
same,inhibition of replication of HSV-1,[10]; BGM 70 cells,inhibit replication of herpes simplex virus type 1 (HSV-1)
same,inhibition at 500 µM,"[3]; Human alphaherpesvirus 2, 500 μM, one experiment, n=3 wells, P<0.02, read-out: inhibition (PFU), virus-infected cells",66 ± 6%
CCCCCCCCCCO [decanol],extracellular inactivation of HSV,[7],90-100%
CCCCCCCCCCCCO [dodecanol],extracellular inactivation of HSV,[7],90-100%
CCCCC[C@@H](O)[C@H]1C(=O)O[C@H](C)[C@@H](O)/C=C/C=C/C=C/C=C/C=C(\C)[C@@H](O)C[C@H](O)C[C@H](O)C[C@H](O)C[C@H](O)C[C@H](O)C[C@@H]1O [filipin],inactivation of enveloped viruses,[5],inactivates enveloped viruses
C/C(=C\CO)CCC[C@H](C)CCC[C@H](C)CCCC(C)C [phytol],concentration inhibiting enveloped virus .phi. 6,[11],10^-6 to 10^-4 mM
same,concentration inhibiting HSV,[7],0.01 to 0.1 mM
CCCCCCCCCCCCCCO [tetradecanol],extracellular inactivation of HSV,[7],90-100%
benzalkonium chloride,inactivation of HIV,[12],inactivate HIV
same,concentration destroying the infectiousness of HIV,[12]; general fluids of seropositive individuals,0.05%
nonoxynol-9,inactivation of HIV,[12],inactivate HIV

# Reference: patent US5185366A, “Method for treatment and prevention of diseases caused by enveloped viruses, including herpes simplex virus types 1 and 2 diseases, using 3,4-dihydroxy-2H-benzopyran-2H-one” (Ohio State University Research Foundation, priority 1990, dated 1993)
